According to US7098313B2, “DNA sequences coding for a polyol carrier and their use, in particular for the preparation of transgenic plants” (Centre National de la Recherche Scientifique, priority 2000, dated 2006):

Key:
[1] = system: AgMaT1 expression; details: saline stress for 4 weeks, daily watering with 300 mM of NaCl; RT-PCR
Description: The total RNA of celery phloem was isolated according to the method of Kay et al. (1987). The first strand of cDNA was reverse transcribed from the total RNA with the oligo dT primer by using the reverse transcriptase SuperScript™ II (Stratagene). […] The PCR conditions were as follows: 2 minutes at 95° C. then 30 cycles comprising denaturation for 30 seconds at 95° C., fixation for one minute at 47° C. and extension for 45 seconds at 72° C. The PCR products were analyzed by agarose gel electrophoresis and the intensity of the signal obtained was quantified using Photoshop 5.0 software (Adobe systems Inc.). The extension factor elF4A(10) (Mandel et al., 1995) was used as control gene, the expression of which is invariable.
The expression of AgMaT1 was monitored in plants having been subjected to saline stress for 4 weeks (daily watering with 300 mM of NaCl, Noiraud et al., 2000). The phloem of these plants as well as of the corresponding control plants (watered with water not containing NaCl) was removed in order to extract the RNA which was used to carry out RT-PCR reactions.

[2] = system: AgMaT1; assay: Transport of radiolabelled mannitol in yeast cells expressing AgMaT1, with competitors; format: cell-based, Apium graveolens L.; details: MaDH4 S. cerevisiae expressing AgMaT1; 500 μM [3H]-mannitol, pH 4.5; competitor added 30 seconds before
Description: The cells were cultured until the start of the logarithmic phase (corresponding to an absorbance of […]), washed in distilled water and resuspended at 1% (weight/volume) in SC medium buffered to pH 4.5 with 25 mM MES. A 100 μl aliquot fraction of the cell suspension was incubated for 60, 120, 180 and 300 seconds in 100 μl of a solution containing of 500 μM [^3H]-mannitol. The reaction was stopped by adding 8 ml of water at 4° C. and by filtration through glass fibre filters (Sartorius). The radioactivity incorporated in the yeast cells was determined by counting using liquid scintillation (Packard). For the experiments with inhibitors or competitors, the product was added 30 seconds before the radioactive mannitol.
For a subsequent characterization of the function of the AgMaT1 protein, it was necessary to express the carrier in a functional manner in a heterologous system such as yeast cells. The cDNA of AgMaT1 was sub-cloned in the PstI/XhoI sites of the YEP 112A1XE shuttle vector which has a promoter/terminator box of the gene of alcohol dehydrogenase ADH1 of S. cerevisiae (Riesmeier et al., 1992). The competent MaDH4 cells were transformed with this construction and YEP 112A1XE was used as control.
All of the constructions were firstly tested for their ability to grow on mannitol as the only carbon source. […] The cells expressing AgMaT1 could grow very well on this polyol. In order to directly test the ability of the transformed cells to transport mannitol, the yeast cells were incubated in a medium containing [^3H]-mannitol for a few seconds to several minutes, the cells were washed and the radioactivity absorbed was measured by […] scintillation counting. […] However, the MaDH4 yeast strains, expressing AgMaT1, transport the [^3H]-mannitol at high speeds when they grow on a medium containing mannitol. The same result is obtained with the cells of transformed yeast growing on glycerol (data not indicated).

Compound | expression of AgMaT1 in the phloem (control plants taken as base 100) [1] [%] | inhibition of the absorption of mannitol [2]
[Cl-].[Na+] [NaCl] | 500 | 
OC[C@@H](O)[C@H](O)[C@H](O)[C@@H](O)CO [dulcitol] |  | inhibiting by half
O[C@H]1[C@H](O)[C@@H](O)[C@H](O)[C@@H](O)[C@H]1O [myo-inositol] |  | inhibiting by half
OC[C@@H](O)[C@@H](O)[C@H](O)[C@@H](O)CO [sorbitol] |  | inhibiting by half
OC[C@@H](O)[C@H](O)[C@@H](O)CO [xylitol] |  | inhibiting by half
